Patent publication US20220033397A1, “PHARMACEUTICAL COMPOUNDS AND THEIR USE AS INHIBITORS OF UBIQUITIN SPECIFIC PROTEASE 19 (USP19)” (ALMAC DISCOVERY LIMITED, priority 2018, published 2022)

Molecular target: T1, Full-length USP19 (Homo sapiens, UniProt O94966)
T1 construct: Full-length USP19 was purchased from Boston Biochem (E-576); purchased Boston Biochem E-576
T1 sequence (O94966 1-1318): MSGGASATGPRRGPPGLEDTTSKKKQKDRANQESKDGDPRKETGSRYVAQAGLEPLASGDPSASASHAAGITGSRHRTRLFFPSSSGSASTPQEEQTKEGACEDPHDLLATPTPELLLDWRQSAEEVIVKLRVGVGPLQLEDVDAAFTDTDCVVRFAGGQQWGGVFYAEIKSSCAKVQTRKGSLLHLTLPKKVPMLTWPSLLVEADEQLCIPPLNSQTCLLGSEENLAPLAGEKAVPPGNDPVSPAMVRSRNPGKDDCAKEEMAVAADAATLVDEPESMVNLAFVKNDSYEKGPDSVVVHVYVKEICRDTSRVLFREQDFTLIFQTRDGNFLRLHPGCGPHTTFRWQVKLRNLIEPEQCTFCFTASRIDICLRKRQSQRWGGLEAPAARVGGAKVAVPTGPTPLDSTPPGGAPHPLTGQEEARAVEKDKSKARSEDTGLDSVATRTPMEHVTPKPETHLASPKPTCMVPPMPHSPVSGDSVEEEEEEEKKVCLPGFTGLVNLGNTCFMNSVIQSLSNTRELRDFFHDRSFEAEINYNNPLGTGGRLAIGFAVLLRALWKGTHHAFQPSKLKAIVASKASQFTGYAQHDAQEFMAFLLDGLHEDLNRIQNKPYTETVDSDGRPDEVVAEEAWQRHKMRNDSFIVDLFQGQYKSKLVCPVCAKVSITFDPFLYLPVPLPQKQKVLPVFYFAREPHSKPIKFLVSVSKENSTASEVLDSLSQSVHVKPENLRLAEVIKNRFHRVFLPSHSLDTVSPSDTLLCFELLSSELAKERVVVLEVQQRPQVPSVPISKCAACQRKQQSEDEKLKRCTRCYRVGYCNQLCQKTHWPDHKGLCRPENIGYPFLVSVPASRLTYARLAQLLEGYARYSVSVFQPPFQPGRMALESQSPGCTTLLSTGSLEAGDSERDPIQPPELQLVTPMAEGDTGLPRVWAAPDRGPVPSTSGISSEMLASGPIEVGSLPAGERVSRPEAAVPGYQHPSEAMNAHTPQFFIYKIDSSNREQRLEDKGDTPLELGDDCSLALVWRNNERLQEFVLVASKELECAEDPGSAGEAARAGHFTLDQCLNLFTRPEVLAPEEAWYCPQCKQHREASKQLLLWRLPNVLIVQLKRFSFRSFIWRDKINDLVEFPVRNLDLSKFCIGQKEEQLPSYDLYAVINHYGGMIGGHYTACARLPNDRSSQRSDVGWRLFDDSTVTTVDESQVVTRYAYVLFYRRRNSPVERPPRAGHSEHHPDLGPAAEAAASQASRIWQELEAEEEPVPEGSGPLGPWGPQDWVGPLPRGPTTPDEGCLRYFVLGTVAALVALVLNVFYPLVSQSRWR
Assay: USP19 fluorescence polarisation (FP) homogeneous assay with Ubiquitin-Lys-TAMRA substrate
Assay type: biochemical
Details: 2.5 nM USP19, 30 min pre-incubation, average of at least two duplicate experiments
Outline: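 Full-length USP19 preincubated 30 min at RT with inhibitor (200 μM to 2 μM series, 8–18 points) before adding 500 nM Ubiquitin-Lys-TAMRA substrate.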

SMILES	IC50 [µM]
C[C@H](CC1CCCCC1)C(=O)N1CCC(O)(CN2Cc3cccnc3C2=O)C2(CCCC2)C1 (stereo partly drawn) [Example 102, 6-((7-((R)-3-Cyclohexyl-2-methylpropanoyl)-10-hydroxy-7-azaspiro[4.5]decan-10-yl)methyl)-5,6-dihydro-7H-pyrrolo[3,4-b]pyridin-7-one]	5 to 50
O=C(NCc1ccccc1)N1CCC(O)(Cn2cnc(-c3cccnc3)cc2=O)C2(CCCC2)C1 (stereo not drawn) [Example 200, N-Benzyl-10-hydroxy-10-((6-oxo-4-(pyridin-3-yl)pyrimidin-1(6H)-yl)methyl)-7-azaspiro[4.5]decane-7-carboxamide]	5 to 50
C[C@H](CC(F)(F)F)C(=O)N1CCC(O)(Cn2ccncc2=O)C2(CCCC2)C1 (stereo partly drawn) [Example 5, 1-((10-Hydroxy-7-((R)-4,4,4-trifluoro-2-methylbutanoyl)-7-azaspiro[4.5]decan-10-yl)methyl)pyrazin-2(1H)-one]	5 to 50
O=C(N1CCC(O)(Cn2cnc(-c3ccccc3)cc2=O)C2(CCCC2)C1)N1CCOCC1CC1CC1 (stereo not drawn) [Example 229, 3-((7-(3-(Cyclopropylmethyl)morpholine-4-carbonyl)-10-hydroxy-7-azaspiro[4.5]decan-10-yl)methyl)-6-phenylpyrimidin-4(3H)-one]	5 to 50
O=C(N1CC[C@@](O)(Cn2cnc(-c3ccccc3OC3CC3)cc2=O)C2(CCCC2)C1)N1CCNC[C@H]1c1ccccc1 [Example 365, 6-(2-Cyclo-propoxyphenyl)-3-(((S)-10-hydroxy-7-((R)-2-phenylpipera-zine-1-carbonyl)-7-azaspiro[4.5]decan-10-yl)methyl)pyrimi-din-4(3H)-one]	< 0.5
COc1cc(=O)n(C[C@]2(O)CCN(C(=O)N3CCNC[C@H]3c3ccccc3)CC23CCCC3)cn1 [Example 324, 3-(((S)-10-Hydroxy-7-((R)-2-phenylpiperazine-1-carbonyl)-7-azaspiro[4.5]decan-10-yl)methyl)-6-methoxypyrimidin-4(3H)-one]	< 0.5
O=C(N1CCC(O)(Cn2cnc(-c3ccccc3)cc2=O)C2(CCCCC2)C1)N1CCOC[C@H]1c1ccccc1 (stereo partly drawn) [Example 296, 3-((5-Hydroxy-2-((R)-3-phenylmorpholine-4-carbonyl)-2-azaspiro[5.5]undecan-5-yl)methyl)-6-phenylpyrimidin-4(3H)-one]	< 0.5
C[C@H](CC1CCCCC1)C(=O)N1CCC(O)(Cn2cc(-c3ccncc3)ncc2=O)C2(CCCC2)C1 (stereo partly drawn) [Example 20, 1-((7-((R)-3-Cyclohexyl-2-methylpropanoyl)-10-hydroxy-7-azaspiro[4.5]decan-10-yl)methyl)-5-(pyridin-4-yl)pyrazin-2(1H)-one]	0.5 to 5
C[C@H](CC1CCCCC1)C(=O)N1CCC(O)(Cn2cnc3cc(Cl)ccc3c2=O)C2(CCCC2)C1 (stereo partly drawn) [Example 129, 7-Chloro-3-((7-((R)-3-cyclohexyl-2-methylpropanoyl)-10-hydroxy-7-azaspiro[4.5]decan-10-yl)methyl)quinazolin-4(3H)-one]	0.5 to 5
CC1(CNC(=O)N2CCC(O)(Cn3cnc(-c4ccccc4)cc3=O)C3(CCCC3)C2)CC1 (stereo not drawn) [Example 256, 10-Hydroxy-N-((1-methylcyclopropyl)methyl)-10-((6-oxo-4-phenylpyrimidin-1(6H)-yl)methyl)-7-azaspiro[4.5]decane-7-carboxamide]	5 to 50
O=C1CN(C(=O)N2CC[C@@](O)(Cn3cnc(-c4ccccc4)cc3=O)C3(CCCC3)C2)[C@H](c2ccccc2)CN1 [Example 372, 3-(((S)-10-Hydroxy-7-((R)-5-oxo-2-phenylpiperazine-1-carbonyl)-7-azaspiro[4.5]decan-10-yl)methyl)-6-phenylpyrimidin-4(3H)-one]	< 0.5
CSc1ncc2c(=O)n(CC3(O)CCN(C(=O)[C@H](C)CC(F)(F)F)CC34CCCC4)n(C)c2n1 (stereo partly drawn) [Example 64, 2-((10-Hydroxy-7-((R)-4,4,4-trifluoro-2-methylbutanoyl)-7-azaspiro[4.5]decan-10-yl)methyl)-1-methyl-6-(methylthio)-1,2-dihydro-3H-pyrazolo[3,4-d]pyrimidin-3-one]	0.5 to 5
Cn1nccc1-c1cc(=O)n(C[C@]2(O)CCN(C(=O)N3CCOC[C@H]3c3ccccc3)CC23CCCC3)cn1 [Example 224, 3-(((S)-10-Hydroxy-7-((R)-3-phenylmorpholine-4-carbonyl)-7-azaspiro[4.5]decan-10-yl)methyl)-6-(1-methyl-1H-pyrazol-5-yl)pyrimidin-4(3H)-one]	< 0.5
Cc1cccc2c(=O)n(CC3(O)CCN(C(=O)[C@H](C)CC4CCCCC4)CC34CCCC4)cnc12 (stereo partly drawn) [Example 125, 3-((7-((R)-3-Cyclohexyl-2-methylpropanoyl)-10-hydroxy-7-azaspiro[4.5]decan-10-yl)methyl)-8-methylquinazolin-4(3H)-one]	0.5 to 5
C[C@H](CC1CCCCC1)C(=O)N1CCC(O)(Cn2cc(C(=O)N(C)C)c3ccccc3c2=O)C2(CCCC2)C1 (stereo partly drawn) [Example 145, 2-((7-((R)-3-Cyclohexyl-2-methylpropanoyl)-10-hydroxy-7-azaspiro[4.5]decan-10-yl)methyl)-N,N-dimethyl-1-oxo-1,2-dihydroisoquinoline-4-carboxamide]	0.5 to 5
O=C(N1CC[C@@](O)(Cn2cnc(-c3ccccc3)cc2=O)C2(CCCC2)C1)N1CCC[C@H]1c1ccccc1 [Example 213, 3-(((S)-10-Hydroxy-7-((S)-2-phenylpyrrolidine-1-carbonyl)-7-azaspiro[4.5]decan-10-yl)methyl)-6-phenylpyrimidin-4(3H)-one]	< 0.5
C[C@H](CC1CCCCC1)C(=O)N1CCC(O)(Cn2cc(S(C)(=N)=O)c(Cl)cc2=O)C2(CCCC2)C1 (stereo partly drawn) [Example 71, 4-Chloro-1-((7-((R)-3-cyclohexyl-2-methylpropanoyl)-10-hydroxy-7-azaspiro[4.5]decan-10-yl)methyl)-5-(S-methylsulfonimidoyl)pyridin-2(1H)-one]	< 0.5
O=C(N1CC[C@@](O)(Cn2cnc(-c3ccccc3)cc2=O)C2(CCCC2)C1)N1CCNC[C@H]1c1cccc(F)c1 [Example 320, 3-(((S)-7-((R)-2-(3-Fluorophenyl)piperazine-1-carbonyl)-10-hydroxy-7-azaspiro[4.5]decan-10-yl)methyl)-6-phenylpyrimidin-4(3H)-one]	< 0.5
O=C(NCc1c(F)cccc1F)N1CC[C@@](O)(Cn2cnc(-c3ccccc3)cc2=O)C2(CCCC2)C1 [Example 302, (S)—N-(2,6-Difluorobenzyl)-10-hydroxy-10-((6-oxo-4-phenylpyrimidin-1(6H)-yl)methyl)-7-azaspiro[4.5]decane-7-carboxamide]	< 0.5
O=C(N1CC[C@@](O)(Cn2cnc(-c3ccccc3F)cc2=O)C2(CCCC2)C1)N1CCNC[C@H]1c1cc(F)ccc1F [Example 387, 3-(((S)-7-((R)-2-(2,5-Difluorophenyl)piper-azine-1-carbonyl)-10-hydroxy-7-azaspiro[4.5]decan-10-yl)methyl)-6-(2-fluorophenyl)pyrimi-din-4(3H)-one]	< 0.5
Cn1cc(-c2cc(=O)n(CC3(O)CCN(C(=O)NCc4ccccc4)CC34CCCC4)cn2)cn1 (stereo not drawn) [Example 204, N-Benzyl-10-hydroxy-10-((4-(1-methyl-1H-pyrazol-4-yl)-6-oxopyrimidin-1(6H)-yl)methyl)-7-azaspiro[4.5]decane-7-carboxamide]	5 to 50
